Results: patent US6806266B1 (priority 1999, dated 2004)
Read-outs that look alike come from different tables or passages of the source.

What was measured:
[1] = system: human AGP (hα1AGP); type: binding; details: equimolar solution (20 μmol/L) of test compound and human AGP, PBS pH=7.4, 37° C., two hours after mixing with DCC; HPLC peak area ratio
Description: A solution of the test compound in DMSO was added to an isotonic phosphate buffer (PBS, pH=7.4) containing human AGP, to prepare an equimolar solution (20 μmol/L) of the test compound and human AGP. The solution was pre-incubated at 37° C. for 15 minutes and then mixed with an equal volume of 4 mg/mL of DCC in PBS, and incubation was further continued. After two hours from mixing, a part of the solution was sampled and centrifuged (4° C., 20000×g, 2 minutes) to precipitate the charcoal, and the supernatant was subjected to HPLC analysis. Separately, an equimolar solution (20 μmol/L) of the test compound and human AGP was mixed with an equal volume of PBS (pH=7.4), and then the mixed solution was subjected as a DCC-untreated sample to HPLC analysis. The ratio of the peak area of the DCC-treated sample to the average peak area of the DCC-untreated sample (the solution mixed with PBS) was calculated as the degree of binding (%).

[2] = system: human epidermal cancer cell line A431; type: cell-based; details: A431 cells
Description: After the removal of the culture supernatant, the cells were washed with PBS(−), detached in an aqueous solution of 0.25% of Trypsin (GIBCO BRL) and 0.02% of ethylenediaminetetraacetic acid (Wako Pure Chemical Industries, Ltd.), then fixed at a density of 10^6 cells/mL with a 70% aqueous solution of ethanol and stored in a cold room at 4° C. Ethanol was removed by centrifugation from the fixed cells, and then the fixed cells were washed with PBS(−). The cells were treated at 37° C. for 30 minutes with a 0.25 mg/mL PBS(−)solution of ribonuclease A type 1-A (Sigma) containing 0.1% of Nonidet P-40 (Nacalai Tesque, Inc.), and then a solution of propidiumiodide (Sigma) in 0.1% NP-40/PBS(−) was added into the cells at a final concentration of 50 μg/mL, and the cells were stained in ice for at least 20 minutes.
A DNA histogram was taken by EPICS ELITE Flow Cytometer, and the cell cycle distribution was analyzed by use of MultiCycle Program.
In the method shown in Test Example 3, the G2 stage and the M stage of the cell cycle can not be distinguished from each other, and thus the distrubution of the G2 stage combined with that of the M stage (G2 stage+M stage) is expressed in percentage.

[3] = system: human lung cancer cell line A-549; test: Test for inhibitory activity on cell growth in human lung cancer cell line A-549; details: A549, 72 h, read-out: Inhibitory activity on cell growth (IC50/μmol/L)
[4] = Cisplatin 20 μmol/L + test compound 50 nmol/L, 8 hours

Structure (SMILES)	Degree of binding to hα1AGP (%) [1] [%]	Cell cycle distribution (%) G1 stage [2, 4] [%]	Cell cycle distribution (%) G2 stage + M stage [2, 4] [%]	Cell cycle distribution (%) S stage [2, 4] [%]	abrogation of accumulation action at the G2 stage and S stage ([2]; in combination with Cisplatin (20 μmol/L))	IC50 [3] [µmol/L]	Cell cycle distribution (%) G1 stage ([2]; Cisplatin 20 μmol/L alone) [%]	Cell cycle distribution (%) G2 stage + M stage ([2]; Cisplatin 20 μmol/L alone) [%]	Cell cycle distribution (%) S stage ([2]; Cisplatin 20 μmol/L alone) [%]	accumulation action at the G2 stage or S stage (cell cycle distribution versus untreated group) ([2]; only Cisplatin (20 μmol/L))
CN[C@@H]1C[C@H]2O[C@@](C)([C@@H]1OC)n1c3ccccc3c3c4c(c5c6ccccc6n2c5c31)C(=O)N[C@@H]4O [UCN-01]	76.8	31.9	27.6	40.5	a decrease in the S stage and an increase in the G1 stage	0.018				
N.N.[Cl][Pt][Cl] [Cisplatin]							5.5	17.5	77.0	An increase in the S stage, an increase in (G2 stage+M stage) and a decrease in the G1 stage
